Reference: US10624948B2, “Use of cell-permeable peptide inhibitors of the JNK signal transduction pathway for the treatment of various diseases” (Xigen Inflammation Ltd., priority 2013, dated 2020)
Square brackets hold non-standard residues; d marks the D form. Ends that are not written are not given here.

Legend:
[1] = tested on: Sprague-Dawley albino rats, light-induced photoreceptor cell death; format: in vivo
Method: The aim of this study was to investigate the dose effect of XG-102 on light-induced photoreceptor cell death.
Test item (XG-102: 30 mg/ml, 3 mg/ml, and 0.3 mg/ml) and vehicle (0.9% NaCl) were administered by intravitreal injection in right eyes the day before induction. The reference (Phenyl-N-test-Butylnitrone (PBN) (50 mg/kg)) and vehicle were intraperitoneally injected 30 min before induction then, 3 times during 12 hours of light exposition, then once after induction. Animals were placed in constant light (7000 lux) for 24 h. Electroretinograms (ERG) were recorded before light treatment and on days 9, 16 and 23 after induction. Eyes were then taken for histology and outer nuclear layer (ONL) thickness assessment. The table below summarizes the allocation of animals in treatment groups:
For the intravitreal injection animals were anesthetized by intramuscular injection of a mixture of xylazine/ketamine. Test item (5 μl) and vehicle (5 μl) were injected in the right eye. The injection was performed under an operating microscope in the supratemporal area at pars plana using a 33G-needle mounted on a 50 μl Hamilton. The filled syringe was mounted into the UltraMicroPump III to achieve accurate injection in microliter range. Reference and vehicle were injected intraperitoneally at a dose volume of 2.5 ml/kg using a 30G-needle mounted on a 1 ml-syringe.
Light Exposure: The rats that had been dark-adapted overnight were exposed for 24 hours to a continuous white fluorescent light (7000 lx) in clear plastic cages. Each cage contained one rat. After exposure, the rats returned to rearing cyclic light conditions.
ERG was recorded before induction and 7, 14 and 21 days after cessation of exposure (Days 9, 16 and 23) on right eyes of dark-adapted and anesthezied animals. The latency times (for a- and b-wave) and the a-wave and b-wave amplitudes were measured for each ERG; the latency times were expressed as millisecond and the a-wave and b-wave as a percentage of the baseline value obtained before light exposure. 15 min before measurement 10 μl Mydriaticum® (0.5% tropicamide) were instilled for pupillary dilatation.
Measurement of the ONL Thickness: After ERG testing, animal was euthanized by an overdose of pentobarbital and the right eyes were enucleated, fixed and embedded in paraffin. Sections (5 μm thick) were performed along the vertical meridian and stained with Trichrome-Masson. The vertical meridian included the optic nerve.

[2] = tested on: TC-3 cell cultures; assay: Cellular import of fluorescein labeled TAT and TAT-IB1(s) peptides; format: cell-based; conditions: labeled peptides 1 μM
Method: The ability of the L- and D-enantiomeric forms of TAT and TAT-IB1(s) peptides (“TAT-IB peptides”) to enter cells was evaluated. L-TAT, D-TAT, L-TAT-IB1(s), and D-TAT-IB1(s) peptides [SEQ ID NOs: 5, 6, 9 and 12, respectively] were labeled by N-terminal addition of a glycine residue conjugated to fluorescein. Labeled peptides (1 μM) were added to TC-3 cell cultures, which were maintained as described in Example 3. At predetermined times cells were washed with PBS and fixed for five minutes in ice-cold methanol-acetone (1:1) before being examined under a fluorescence microscope. Fluorescein-labeled BSA (1 μM, 12 moles/mole BSA) was used as a control.
Little to no signal was present at 48 hours.
Fluorescent signals from these all-D retro-inverso peptides were still very strong 1 week later, and the signal was only slightly diminished at 2 weeks post treatment.

[3] = tested on: TC-3 cells; assay: IL-1 induced pancreatic beta-cell death; format: cell-based; conditions: one single addition 1 μM
Method: Inhibition of IL-1 induced pancreatic beta-cell death by the D-TAT-IB1(s) peptide was analyzed. TC-3 cells were incubated as described above for 30 minutes with one single addition of the indicated peptides (1, μM), then IL-1 (10 ng/ml) was added.
Apoptotic cells were then counted after two days of incubation with IL-1 by use of Propidium Iodide and Hoechst 33342 nuclear staining. A minimum of 1,000 cells were counted for each experiment. Standard Error of the Means (SEM) are indicated, n=5.
Long term inhibition of IL-1P induced cell-death by the D-TAT-IB1 peptide was also analyzed. TC-3 cells were incubated as above for 30 minutes with one single addition of the indicated peptides (1 μM), then IL-1 (10 ng/ml) was added, followed by addition of the cytokine every two days. Apoptotic cells were then counted after 15 days of incubation with IL-1 by use of propidium iodide and Hoechst 33342 nuclear staining. […] A minimum of 1.000 cells were counted for each experiment.

[4] = tested on: recombinant JNK1, JNK2 and JNK3; assay: Solid phase kinase assay, phosphorylation of c-Jun, ATF2 and Elk1; format: biochemical; conditions: dose response 0-25 μM
Method: The effects of the peptides on JNKs-mediated phosphorylation of their target transcription factors were investigated in vitro. Recombinant and non activated JNK1, JNK2 and JNK3 were produced using a TRANSCRIPTION AND TRANSLATION rabbit reticulocyte lysate kit (Promega) and used in solid phase kinase assays with c-Jun, ATF2 and Elk1, either alone or fused to glutathione-S-transferase (GST), as substrates. Dose response studies were performed wherein L-TAT or L-TAT-IB1(s) peptides (0-25 μM) were mixed with the recombinant JNK1, JNK2, or JNK3 kinases in reaction buffer (20 mM Tris-acetate, 1 mM EGTA, 10 mM p-nitrophenyl-phosphate (pNPP), 5 mM sodium pyrophosphate, 10 mM p-glycerophosphate, 1 mM dithiothreitol) for 20 minutes. The kinase reactions were then initiated by the addition of 10 mM MgCl2 and 5 pCi ^33P-dATP and 1 μg of either GST-Jun (aa 1-89), GST-AFT2 (aa 1-96) or GST-ELK1 (aa 307-428). GST-fusion proteins were purchased from Stratagene (La Jolla, Calif.).
Ten μL of glutathione-agarose beads were also added to the mixture. Reaction products were then separated by SDS-PAGE on a denaturing 10% polyacrylamide gel. Gels were dried and subsequently exposed to X-ray films (Kodak). […] The ability of D-TAT, D-TAT-IB1(s) and L-TAT-IB1(s) peptides (0-250 μM dosage study) to inhibit GST-Jun (aa 1-73) phosphorylation by recombinant JNK1, JNK2, and JNK3 by were analyzed as described above. […]

[5] = tested on: JNKs from UV-light irradiated HeLa cells or IL-1 treated PTC cells; assay: c-Jun phosphorylation by activated JNKs pulled down with GST-Jun; format: biochemical; conditions: 25 μM
Method: The effects of the L-TAT or L-TAT-IB1(s) peptides as defined herein on JNKs activated by stressful stimuli were evaluated using GST-Jun to pull down JNKs from UV-light irradiated HeLa cells or IL-1 treated PTC cells. PTC cells were cultured as described above. HeLa cells were cultured in DMEM medium supplemented with 10% Fetal Calf Serum, 100 μg/mL Streptomycin, 100 units/ml Penicillin and 2 mM Glutamine. One hour prior to being used for cell extract preparation, PTC cells were activated with IL-1 as described above, whereas HeLa cells were activated by UV-light (20 J/m^2). Cell extracts were prepared from control, UV-light irradiated HeLa cells and IL-1 treated TC-3 cells by scraping the cell cultures in lysis buffer (20 mM Tris-acetate, 1 mM EGTA, 1% Triton X-100, 10 mM p-nitrophenyl-phosphate, 5 mM sodium pyrophosphate, 10 mMP-glycerophosphate, 1 mM dithiothreitol). Debris was removed by centrifugation for five minutes at 15,000 rpm in an SS-34 Beckman rotor. One-hundred μg extracts were incubated for one hour at room temperature with one μg GST-jun (amino acids 1-89) and 10 μL of glutathione-agarose beads (Sigma). Following four washes with the scraping buffer, the beads were resuspended in the same buffer supplemented with L-TAT or L-TAT-IB1(s) peptides (25 μM) for 20 minutes. […]

[6] = tested on: JNK signaling in HeLa cells (GAL-Jun, MKK4/MKK7); assay: GAL4 luciferase reporter of c-Jun activation; format: cell-based; conditions: 1 μM, 16 hours
Excerpt: To determine whether the cell-permeable peptides as defined herein could block JNK signaling in vivo, we used a heterologous GAL4 system. HeLa cells, cultured as described above, were co-transfected with the 5×GAL-LUC reporter vector together with the GAL-Jun expression construct (Stratagene) comprising the activation domain of c-Jun (amino acids 1-89) linked to the GAL4 DNA-binding domain. Activation of JNK was achieved by the co-transfection of vectors expressing the directly upstream kinases MKK4 and MKK7 (see Whitmarsh et al., Science 285: 1573 (1999)). Briefly, 3×10^5 cells were transfected with the plasmids in 3.5-cm dishes using DOTAP (Boehringer Mannheim) following instructions from the manufacturer. For experiments involving GAL-Jun, 20 ng of the plasmid was transfected with 1 μg of the reporter plasmid pFR-Luc (Stratagene) and 0.5 μg of either MKK4 or MKK7 expressing plasmids. Three hours following transfection, cell media were changed and TAT and TAT-IB1(s) peptides (1 μM) were added. The luciferase activities were measured 16 hours later using the “Dual Reporter System” from Promega after normalization to protein content. […] Because HeLa cells express JNK1 and JNK2 isoforms but not JNK3, we transfected cells with JNK3.

[7] = tested on: AP-1 DNA binding complex, HeLa cell nuclear extracts; assay: Gel retardation assay with AP-1 probe; format: cell-based; conditions: in the presence of TNF-alpha

## CC(C)(C)[N+]([O-])=Cc1ccccc1 [PBN, Phenyl-N-tert-Butylnitrone, reference compound]
[1]; PBN i.p., Day 23
  decrease of mean ONL thickness vs untreated eyes: 16%
[1]; rat, in vivo, ip, 50 mg/kg
  ERG B-wave amplitude, percent of the baseline, Mean ± SD: 100 ± 18.6%

## Fluorescein-labeled BSA: fluorescein labeled bovine serum albumin (1 μM BSA, 12 moles fluorescein/mole BSA), control
[2]
  entry into cells: did not enter the cells

## TDQSRPVQPFLNLTTPRKPRYTDPPRRRQRRKKRG ([dT][dD][dQ][dS][dR][dP][dV][dQ][dP][dF][dL][dN][dL][dT][dT][dP][dR][dK][dP][dR][dY][dT][dD][dP][dP][dR][dR][dR][dQ][dR][dR][dK][dK][dR]G) [D-TAT-IB1]
[3]; IL-1 10 ng/ml
  IL-1 induced apoptosis after two days: decreased IL-1 induced apoptosis to a similar extent as L-TAT-IB peptides

## GRKKRRQRRRPPRPKRPTTLNLFPQVPRSQD (Description of sequence: L-TAT-IB1 (s) (see Table 1)) [L-TAT-IB1(s)]
[4]
  peptide dose giving nearly complete inhibition of c-Jun, ATF2 and Elk1 phosphorylation by JNKs: 2.5 µM
[3]; IL-1 every two days
  long term (15 day) protection from IL-1 induced cell-death: but not L-TAT-IB1(s), was able to confer long term (15 day) protection
[5]
  prevention of phosphorylation of c-Jun by activated JNKs: efficiently prevented phosphorylation of c-Jun by activated JNKs
[6]
  activation of c-Jun following MKK4 and MKK7 mediated activation of JNK (luciferase): blocked activation of c-Jun following MKK4 and MKK7 mediated activation of JNK
[7]
  formation of the AP-1 DNA binding complex: decrease the formation of the AP-1 DNA binding complex
